Earlier results on one compound are cited in patent US6470305B1, “Chemical analysis by morphological similarity” (priority 1998, dated 2002).

Each structure is given as a SMILES string.

This data set deals with CDK2 (Homo sapiens, UniProt P24941). The settings on record: weak inhibitor; value from Kim et al., Prog Cell Cycle Res (1996); read-out: IC50 versus CDK2.

Consider `CC(C)=CCNc1ncnc2nc[nH]c12` [IPA, isopentenyl adenine], for which the IC50 (commonly the concentration that gives 50% inhibition) is 50 µM.
